Test results published in US20200131156A1, “ARYLSULFONYLPYROLECARBOXAMIDE DERIVATIVES AS Kv3 POTASSIUM CHANNEL ACTIVATORS” (H. Lundbeck A/S, priority 2018, published 2020).

Biological target: T1, hKv3.1b (Homo sapiens, UniProt P48547)
T1 construct: expressed in transfected cells
T1 sequence (P48547 1-585 isoform P48547-2): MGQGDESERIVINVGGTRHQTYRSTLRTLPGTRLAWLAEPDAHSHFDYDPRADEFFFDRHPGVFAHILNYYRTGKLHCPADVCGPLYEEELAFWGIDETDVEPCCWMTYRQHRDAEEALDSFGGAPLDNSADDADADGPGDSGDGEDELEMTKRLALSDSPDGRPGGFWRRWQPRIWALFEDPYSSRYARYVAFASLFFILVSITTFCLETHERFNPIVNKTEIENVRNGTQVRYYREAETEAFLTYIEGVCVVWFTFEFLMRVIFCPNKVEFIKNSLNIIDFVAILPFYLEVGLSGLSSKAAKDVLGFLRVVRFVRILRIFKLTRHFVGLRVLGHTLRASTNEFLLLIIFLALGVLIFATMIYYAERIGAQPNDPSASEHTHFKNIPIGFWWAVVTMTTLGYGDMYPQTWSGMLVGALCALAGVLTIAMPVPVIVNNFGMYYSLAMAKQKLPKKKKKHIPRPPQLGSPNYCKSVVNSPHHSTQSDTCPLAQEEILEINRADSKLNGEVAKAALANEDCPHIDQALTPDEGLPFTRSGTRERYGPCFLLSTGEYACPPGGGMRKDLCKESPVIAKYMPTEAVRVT
Experiment: Automated patch clamp (QPatch-16x) on HEK-293 cells stably expressing hKv3.1b
Type: cell-based
Conditions: for hKv3.1 (Qpatch) ECΔ30% increase: concentration increasing current by 30% at the −10 mV step; for hKv3.1 (Qpatch) ECΔ30% increase / hKv3.1 (Qpatch) ECΔ5 mV: automated patch clamp; for ECdelta5 mV: concentration needed to shift the activation threshold 5 mV; for hKv3.1 (Qpatch) ECΔ5 mV: concentration that shifts activation threshold by 5 mV in hyperpolarized direction; for Threshold Shift: maximum absolute hyperpolarizing shift of activation threshold at tested concentrations 0.37-30 μM
Method in brief: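 Whole-cell automated patch clamp, extracellular pH 7.4, 4 mM Na2ATP intracellular; holding −80 mV, 200 ms steps −70 to +10 mV. Five ascending concentrations (0.37–30 μM) per cell, ~3 min each, 0.33% DMSO vehicle. Activation threshold (5% of vehicle peak at 10 mV) shift fitted sigmoidally; ECdelta5 mV read from curve.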

SMILES	hKv3.1 (Qpatch) ECΔ30% increase	ECdelta5 mV	hKv3.1 (Qpatch) ECΔ5 mV	Threshold Shift
Cc1ccc(S(=O)(=O)n2ccc(C(=O)NCc3ncco3)c2)cc1 [Compound 86, 1-(4-methylbenzene-1-sulfonyl)-N-[(1,3-oxazol-2-yl)methyl]-1H-pyrrole-3-carboxamide]	2.9 µM	2800 nM	2.7 µM	17 mV
Cc1cnc(CNC(=O)c2ccn(S(=O)(=O)c3ccc(F)cc3C)c2)cn1 [Compound 90, 1-(4-fluoro-2-methylbenzene-1-sulfonyl)-N-[(5-methylpyrazin-2-yl)methyl]-1H-pyrrole-3-carboxamide]	1.6 µM	1300 nM	1.2 µM	32 mV
